Earlier results in EP2566463B1, “EXTENDED RELEASE THIOCO[…]” (Ali Raif Ilac Sanayi Ve Ticaret A.S., priority 2010, dated 2011).

What was measured:
[1] = conventional, immediate release forms of thiocolchicoside
[2] = conventional, immediate release forms

Row | Molecule | Elimination half life in plasma [1] [h] | muscle relaxing effect starts [2] [h]
1 | COc1c(O)cc2c(c1OC)-c1ccc(SC)c(=O)cc1C(NC(C)=O)CC2 (stereo not drawn) [3-Desmethylthiocolchicine] | 4 to 5 | –
2 | N-[3-(β-D-glucopyranosyloxy)-1,2-dimethoxy-10-(methylthio)-9-oxo-5,6,7,9-tetrahydrobenzo[a]heptalen-7-yl]acetamide [thiocolchicoside] | 4 to 5 | 1 to 2
